# From the supplement of paper PMC13207355
# Tests used:
# Details in all cases: exposure time: 72 h
# E57 [1] = patient-derived glioblastoma stem cells of mesenchymal subtype; experiment: surviving fraction (nuclei count normalised to DMSO); higher = more cells surviving (less toxic)
# E28 [2] = patient-derived glioblastoma stem cells of classical subtype; experiment: as above
# E31 [3] = patient-derived glioblastoma stem cells of proneural subtype; experiment: as above
# FT3469 [4] = normal neural stem cell line; experiment: as above
# E21 [5] = patient-derived glioblastoma stem cells of mesenchymal subtype; experiment: as above
# E34 [6] = patient-derived glioblastoma stem cells of proneural subtype; experiment: as above
# E13 [7] = patient-derived glioblastoma stem cells of classical subtype; experiment: as above
# E57 [8] = experiment: phenotypic distance (Euclidean, principal components) from DMSO controls (arbitrary units); higher = stronger morphological change
# E28 [9] = experiment: as above
# E31 [10] = experiment: as above
# FT3469 [11] = experiment: as above
# E21 [12] = experiment: as above
# E34 [13] = experiment: as above
# E13 [14] = experiment: as above
# 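For phenotypic distance (Euclidean, principal components) from DMSO controls in this document: cell Painting imaging in 384-well plates, CellProfiler features reduced to at least 20 principal components, Euclidean distance versus same-plate DMSO vehicle wells (0.1% v/v), median over six images per well.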
# 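For surviving fraction (nuclei count normalised to DMSO) in this document: nuclei counted by high-content imaging of Hoechst-stained cells in laminin-coated 384-well plates, relative to 0.1% DMSO vehicle wells, with staurosporine as cell-death control.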
structure (smiles),measurement,setting,value
Cn1nnc2c(C(N)=O)ncn2c1=O [Temozolomide],surviving fraction,E57 [1]; 4.1 nM,0.946
same,surviving fraction,E57 [1]; 12.3 nM,0.909
same,surviving fraction,E57 [1]; 37 nM,0.95
same,surviving fraction,E57 [1]; 111.1 nM,0.958
same,surviving fraction,E57 [1]; 333.3 nM,0.951
same,surviving fraction,E57 [1]; 1000 nM,0.953
same,surviving fraction,E57 [1]; 3000 nM,0.931
same,surviving fraction,E28 [2]; 4.1 nM,0.981
same,surviving fraction,E28 [2]; 12.3 nM,0.95
same,surviving fraction,E28 [2]; 37 nM,1.11
same,surviving fraction,E28 [2]; 111.1 nM,1.02
same,surviving fraction,E28 [2]; 333.3 nM,1.06
same,surviving fraction,E28 [2]; 1000 nM,0.921
same,surviving fraction,E28 [2]; 3000 nM,0.979
same,surviving fraction,E31 [3]; 4.1 nM,0.882
same,surviving fraction,E31 [3]; 12.3 nM,0.904
same,surviving fraction,E31 [3]; 37 nM,0.833
same,surviving fraction,E31 [3]; 111.1 nM,1.02
same,surviving fraction,E31 [3]; 333.3 nM,1.02
same,surviving fraction,E31 [3]; 1000 nM,0.972
same,surviving fraction,E31 [3]; 3000 nM,0.803
same,surviving fraction,FT3469 [4]; 4.1 nM,1.01
same,surviving fraction,FT3469 [4]; 12.3 nM,0.927
same,surviving fraction,FT3469 [4]; 37 nM,1
same,surviving fraction,FT3469 [4]; 111.1 nM,0.936
same,surviving fraction,FT3469 [4]; 333.3 nM,1.18
same,surviving fraction,FT3469 [4]; 1000 nM,0.822
same,surviving fraction,FT3469 [4]; 3000 nM,1.04
same,surviving fraction,E21 [5]; 4.1 nM,0.919
same,surviving fraction,E21 [5]; 12.3 nM,0.974
same,surviving fraction,E21 [5]; 37 nM,0.955
same,surviving fraction,E21 [5]; 111.1 nM,0.899
same,surviving fraction,E21 [5]; 333.3 nM,0.883
same,surviving fraction,E21 [5]; 1000 nM,0.988
same,surviving fraction,E21 [5]; 3000 nM,0.862
same,surviving fraction,E34 [6]; 4.1 nM,0.988
same,surviving fraction,E34 [6]; 12.3 nM,0.89
same,surviving fraction,E34 [6]; 37 nM,1.01
same,surviving fraction,E34 [6]; 111.1 nM,0.947
same,surviving fraction,E34 [6]; 333.3 nM,1.06
same,surviving fraction,E34 [6]; 1000 nM,1.02
same,surviving fraction,E34 [6]; 3000 nM,1.07
same,surviving fraction,E13 [7]; 4.1 nM,0.934
same,surviving fraction,E13 [7]; 12.3 nM,0.862
same,surviving fraction,E13 [7]; 37 nM,0.932
same,surviving fraction,E13 [7]; 111.1 nM,0.981
same,surviving fraction,E13 [7]; 333.3 nM,0.909
same,surviving fraction,E13 [7]; 1000 nM,0.936
same,surviving fraction,E13 [7]; 3000 nM,1.04
same,phenotypic distance,E57 [8]; 4.1 nM,0.77
same,phenotypic distance,E57 [8]; 12.3 nM,0.543
same,phenotypic distance,E57 [8]; 37 nM,0.294
same,phenotypic distance,E57 [8]; 111.1 nM,0.599
same,phenotypic distance,E57 [8]; 333.3 nM,0.816
same,phenotypic distance,E57 [8]; 1000 nM,0.662
same,phenotypic distance,E57 [8]; 3000 nM,1.29
same,phenotypic distance,E28 [9]; 4.1 nM,0.473
same,phenotypic distance,E28 [9]; 12.3 nM,0.496
same,phenotypic distance,E28 [9]; 37 nM,0.568
same,phenotypic distance,E28 [9]; 111.1 nM,0.62
same,phenotypic distance,E28 [9]; 333.3 nM,0.378
same,phenotypic distance,E28 [9]; 1000 nM,0.593
same,phenotypic distance,E28 [9]; 3000 nM,0.453
same,phenotypic distance,E31 [10]; 4.1 nM,1.06
same,phenotypic distance,E31 [10]; 12.3 nM,2.72
same,phenotypic distance,E31 [10]; 37 nM,0.892
same,phenotypic distance,E31 [10]; 111.1 nM,0.246
same,phenotypic distance,E31 [10]; 333.3 nM,0.629
same,phenotypic distance,E31 [10]; 1000 nM,0.411
same,phenotypic distance,E31 [10]; 3000 nM,0.89
same,phenotypic distance,FT3469 [11]; 4.1 nM,1.43
same,phenotypic distance,FT3469 [11]; 12.3 nM,1.01
same,phenotypic distance,FT3469 [11]; 37 nM,0.484
same,phenotypic distance,FT3469 [11]; 111.1 nM,0.802
same,phenotypic distance,FT3469 [11]; 333.3 nM,0.852
same,phenotypic distance,FT3469 [11]; 1000 nM,0.793
same,phenotypic distance,FT3469 [11]; 3000 nM,0.513
same,phenotypic distance,E21 [12]; 4.1 nM,1.04
same,phenotypic distance,E21 [12]; 12.3 nM,0.604
same,phenotypic distance,E21 [12]; 37 nM,0.561
same,phenotypic distance,E21 [12]; 111.1 nM,0.642
same,phenotypic distance,E21 [12]; 333.3 nM,1.07
same,phenotypic distance,E21 [12]; 1000 nM,0.394
same,phenotypic distance,E21 [12]; 3000 nM,0.971
same,phenotypic distance,E34 [13]; 4.1 nM,0.82
same,phenotypic distance,E34 [13]; 12.3 nM,0.663
same,phenotypic distance,E34 [13]; 37 nM,0.714
same,phenotypic distance,E34 [13]; 111.1 nM,0.388
same,phenotypic distance,E34 [13]; 333.3 nM,0.867
same,phenotypic distance,E34 [13]; 1000 nM,0.392
same,phenotypic distance,E34 [13]; 3000 nM,0.466
same,phenotypic distance,E13 [14]; 4.1 nM,0.92
same,phenotypic distance,E13 [14]; 12.3 nM,0.797
same,phenotypic distance,E13 [14]; 37 nM,0.786
same,phenotypic distance,E13 [14]; 111.1 nM,0.576
same,phenotypic distance,E13 [14]; 333.3 nM,0.8
same,phenotypic distance,E13 [14]; 1000 nM,0.525
same,phenotypic distance,E13 [14]; 3000 nM,0.666
